One experiment deals with T1, factor VIIa (Homo sapiens, UniProt P08709).
T1 sequence (P08709 213-466 limits assumed): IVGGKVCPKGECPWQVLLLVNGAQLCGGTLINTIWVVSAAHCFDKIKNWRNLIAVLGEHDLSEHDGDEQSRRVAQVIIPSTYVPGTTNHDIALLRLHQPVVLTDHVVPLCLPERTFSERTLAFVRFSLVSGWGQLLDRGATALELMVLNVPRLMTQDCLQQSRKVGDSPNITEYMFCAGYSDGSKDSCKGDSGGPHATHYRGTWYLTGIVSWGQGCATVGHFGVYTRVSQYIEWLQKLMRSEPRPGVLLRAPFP
T1 sequence (P08709 61-212 partner limits assumed): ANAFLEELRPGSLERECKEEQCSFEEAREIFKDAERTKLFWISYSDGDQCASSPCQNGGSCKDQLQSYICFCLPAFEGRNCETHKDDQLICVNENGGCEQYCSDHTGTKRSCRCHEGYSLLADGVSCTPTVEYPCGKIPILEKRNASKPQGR
The experiment can be described thus: Inhibition of factor VIIa. The experiment is classed as biochemical. The source says: Coagulation factor VIIa initiates the extrinsic part of the coagulation cascade after binding to tissue factor and contributes to the activation of factor X to give factor Xa. Inhibition of factor VIIa thus prevents the formation of factor Xa and thus subsequent thrombin formation. The inhibition of factor VIIa by the compounds according to the invention and the measurement of the anticoagulant and antithrombotic activity can be determined by conventional in-vitro or in-vivo methods. A conventional method for the measurement of the inhibition of factor VIIa is described, for example, by H. F. Ronning et al. in Thrombosis Research 1996, 84, 73-81.

A further experiment deals with factor Xa (Homo sapiens, UniProt P00742). The experiment in a line: Inhibition of factor Xa. It counts as biochemical. The source says: The inhibition of factor Xa by the compounds according to the invention and the measurement of the anticoagulant and antithrombotic activity can be determined by conventional in-vitro or in-vivo methods. A suitable method is described, for example, by J. Hauptmann et al. in Thrombosis and Haemostasis 1990, 63, 220-223.
The inhibition of factor Xa can be measured, for example, by the method of T. Hara et al. in Thromb. Haemostas. 1994, 71, 314-319.

pIC50: −log10 of the molar value. Where a name gives a salt, the structure may show the parent alone.

Sequence of factor Xa (P00742 235-488 limits assumed): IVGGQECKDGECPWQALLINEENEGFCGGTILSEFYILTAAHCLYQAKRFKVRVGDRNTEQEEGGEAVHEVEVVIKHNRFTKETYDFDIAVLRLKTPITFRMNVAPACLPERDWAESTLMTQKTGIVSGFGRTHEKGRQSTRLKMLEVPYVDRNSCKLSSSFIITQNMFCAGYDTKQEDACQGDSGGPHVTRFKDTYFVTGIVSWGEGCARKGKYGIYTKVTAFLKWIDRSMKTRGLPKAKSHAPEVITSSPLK
Sequence of factor Xa (P00742 41-179 partner limits assumed): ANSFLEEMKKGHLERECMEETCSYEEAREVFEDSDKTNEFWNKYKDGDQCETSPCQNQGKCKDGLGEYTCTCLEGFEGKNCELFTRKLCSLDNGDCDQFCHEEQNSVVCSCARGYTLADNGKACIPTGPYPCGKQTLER

The term pIC50 denotes the IC50 on a negative log10 scale, so that one unit is a factor of ten. Regarding `CS(=O)(=O)c1ccccc1-c1ccc(OC(C(=O)Nc2cccc(C(=N)N)c2)c2ccccc2)cc1` (stereo not drawn) [Example 1, N-(3-amidinophenyl)-2-(2′-methanesulfonylbiphenyl-4-oxyl)-2-phenylacetamide], the pIC50 is 7.34 against factor VIIa and 6.96 on factor Xa.
On the same counts, the results for `CC(C)(C)NS(=O)(=O)c1ccccc1-c1ccc(NC(C(=O)Nc2cccc(C(=N)N)c2)c2ccccc2)cc1` (stereo not drawn) [Example 5.5, N-(3-amidinophenyl)-2-(2′-tert-butylaminosulfonylbiphenyl-4-amino)-2-phenylacetamide] are 6.26 and 6.85.
On the same counts, the results for `N=C(N)c1cccc(NC(=O)C(Nc2ccc(-c3ccccc3S(N)(=O)=O)cc2)c2ccccc2)c1` (stereo not drawn) [Example 5.6, N-(3-amidinophenyl)-2-(2′-aminosulfonylbiphenyl-4-amino)-2-phenylacetamide, trifluoroacetate] are 7.89 and 7.70.

These data come from patent US20040092517A1, “Phenyl derivatives and their use in the treatment of thromboembolic disorders or tumours” (priority 2001, published 2004).
